{
  "source": "patent US10808017B2",
  "about": "“Ubiquitin variants and uses therof as 53BP1 inhibitors” (The Governing Council of the University of Toronto, priority 2016, dated 2020)",
  "key": {"[1]": {"test_system": "gene conversion (HR) in U2OS DR-GFP cells", "test": "Direct-repeat (DR)-GFP gene conversion assay", "assay_type": "cell-based, human", "details": "SCR7 at 1 μM; i53 by plasmid expression", "procedure": "(§1) FIG. 4. Activation of HR by i53. FIG. 4A, Schematic of the DR-GFP assay. FIG. 4B. U2OS DR-GFP cells were transfected with the vectors expressing i53, the DM mutant or an empty vector control (EV) along with an I-Scel expression vector. The percentage of GFP-positive cells was determined 48 h post-transfection for each condition and was normalized to the empty vector condition (mean±s.d., N=4). FIG. 4C, U2OS DR-GFP were first transfected with siRNAs targeting the 53BP1 or BRCA1 mRNAs along with a non-targeting siRNA (CTRL). 24 h post-transfection, cells were transfected with the I-SceI expression vector and the percentage of GFP-positive cells was determined 48 h post-siRNA transfection for each condition. The values were normalized to the empty vector condition and presented as the mean±s.e.m; N=4. FIG. 4D, Schematic of the gene targeting assay. FIG. 4E, Gene targeting efficiency at the LMNA locus in parental or 53BP1Δ U2OS cells following transfection with vectors expressing Flag-tagged i53 or its DM mutant or an empty vector control (EV). The DNA-PK inhibitor NU7441 was also added where indicated. 24 h post-transfection, cells were analysed for mClover fluorescence. Individual experiments are presented with the error bar representing the s.d., (N=3). FIG. 4F, Gene targeting at the LMNA locus in G 1-arrested parental (WT) or 53BP1Δ U2OS cells transfected with vectors expressing Flag-tagged i53 or its DM mutant or an empty vector control (EV). The DNA-PK inhibitor NU7441 was also added in the indicated conditions. 24 h post-transfection, cells were analysed for mClover fluorescence. Individual experiments are present with the error bar representing the s.d., (N=3).\nThe direct repeat (DR)-GFP assay to measure the frequency of HR and the strand annealing EJ2-GFP assay to measure the frequency of MMEJ were performed as previously described. Briefly, U2OS DR-GFP or U2OS EJ2-GFP cells were transfected with 10 nM siRNA (Dharmacon) using Lipofectamine RNAiMAX (Invitrogen). 24 h later, the cells were transfected with the pCBASceI plasmid (Addgene #26477) and plasmids, using Lipofectamine 2000 (Invitrogen). 48 h post-plasmid transfection, the cells were trypsinized and the percentage of GFP-expressing cells was analyzed using the BD FACSCalibur flow cytometer.\nAAV-293 cells (Agilent) were transfected with pAAV expression, pDJ and pHelper constructs (Cell Biolabs, Inc., USA) in equal amounts using PEI to produce AAV-DJ expression viruses. 48-72 h later, the viral supernatant was used to transduce target cells for 24 h, and assays were initiated a further 24 h later."}, "[2]": {"test_system": "gene targeting at the LMNA locus in U2OS cells", "test": "LMNA mClover gene targeting assay (CRISPR/Cas9)", "assay_type": "cell-based", "details": "parental U2OS cells; NU7441 at 10 μM", "procedure": "as §1\nThe Lamin A (LMNA) assay to measure the frequency of introduction of the coding sequence for mClover at the 5′ end of LMNA using the CRISPR/Cas9 was performed as previously described4. Parental or 53BP1Δ U2OS cell lines were transfected with the indicated plasmids using Lipofectamine RNAiMAX (Invitrogen). 24 h later, the cells were electroporated with 2.5 μg of sgRNA plasmids and 2.5 μg of donor template using a Nucleofector (Lonza; protocol X-001). Parental or 53BP1Δ U2OS cells stably expressing CtIP-T847E mutant were transfected with an siRNA against KEAP1 and the indicated plasmids and processed as previously described."}, "[3]": {"test_system": "gene targeting at the LMNA locus in U2OS cells", "details": "reference [21]; cited from earlier work"}},
  "data": [
    {"compound": "c1cnccn1", "note": "[SCR7 pyrazine, reference compound]", "values": [
      {"measurement": "Gene conversion in DR-GFP assay (comparison in words)", "setting": "[1]", "value": "minimal impact"}
    ]},
    {"compound": "O=c1cc(N2CCOCC2)oc2c(-c3cccc4c3sc3ccccc34)cccc12", "note": "[NU7441, 8-dibenzothiophen-4-yl-2-morpholin-4-yl-chromen-4-one, reference compound]", "values": [
      {"measurement": "Change of gene targeting at the LMNA locus (in words)", "setting": "[2]", "value": "modest increase in gene targeting"}
    ]},
    {"compound": "O=c1[nH]c(=S)[nH]c(N=Cc2ccccc2)c1N=Cc1ccccc1", "note": "[SCR7, reference compound]", "values": [
      {"measurement": "Gene conversion in DR-GFP assay (comparison in words)", "setting": "[1]", "value": "minimal impact"},
      {"measurement": "Response of gene targeting at the LMNA locus to treatment", "setting": "[3]", "value": "not responsive"}
    ]}
  ]
}
